Measurements from PubChem BioAssay (NCI).
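Exposure lasted 48 hours, with cells grown in 96-well plates and compounds tested at five concentrations. Here, GI50 denotes the concentration required for 50% inhibition of growth. TGI is the concentration that stops growth completely.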

Legend:
Test in all cases: growth of human tumour cells (NCI), 48 h
RXF 393 renal = tested on: RXF 393 renal
UO-31 renal = tested on: UO-31 renal
U251 CNS = tested on: U251 CNS
MALME-3M melanoma = tested on: MALME-3M melanoma
HOP-62 NSCLC = tested on: HOP-62 NSCLC
HOP-92 NSCLC = tested on: HOP-92 NSCLC
SK-MEL-5 melanoma = tested on: SK-MEL-5 melanoma
MOLT-4 leukemia = tested on: MOLT-4 leukemia
NCI-H460 lung = tested on: NCI-H460 lung
M14 melanoma = tested on: M14 melanoma
SK-MEL-2 melanoma = tested on: SK-MEL-2 melanoma
DU-145 prostate = tested on: DU-145 prostate
LOX IMVI melanoma = tested on: LOX IMVI melanoma
PC-3 prostate = tested on: PC-3 prostate
HCT-15 colon = tested on: HCT-15 colon
BT-549 breast = tested on: BT-549 breast
SF-268 CNS = tested on: SF-268 CNS
SF-539 CNS = tested on: SF-539 CNS
SNB-19 CNS = tested on: SNB-19 CNS
T-47D breast = tested on: T-47D breast
HL-60(TB) leukemia = tested on: HL-60(TB) leukemia
OVCAR-4 ovarian = tested on: OVCAR-4 ovarian
RPMI-8226 leukemia = tested on: RPMI-8226 leukemia
786-0 renal = tested on: 786-0 renal
CCRF-CEM leukemia = tested on: CCRF-CEM leukemia
MDA-MB-231 breast = tested on: MDA-MB-231 breast
HCT-116 colon = tested on: HCT-116 colon
A498 renal = tested on: A498 renal
TK-10 renal = tested on: TK-10 renal

`COc1ccc(C(=O)Nc2sc3c(c2C#N)CCC(=O)C3)cc1C(F)(F)F` gave a GI50 (RXF 393 renal) of 434 nM, a TGI (RXF 393 renal) of 1690 nM and a GI50 (UO-31 renal) of 422 nM. It also gave a TGI (UO-31 renal) of 1620 nM, a GI50 (U251 CNS) of 723 nM and a TGI (U251 CNS) of 2530 nM. It also gave a GI50 (MALME-3M melanoma) of 370 nM, a TGI (MALME-3M melanoma) of 1420 nM and a GI50 (HOP-62 NSCLC) of 2650 nM. It also gave a TGI (HOP-62 NSCLC) of 8880 nM, a GI50 (HOP-92 NSCLC) of 708 nM and a TGI (HOP-92 NSCLC) of 2530 nM. The GI50 (SK-MEL-5 melanoma) was 1350 nM, the TGI (SK-MEL-5 melanoma) was 2660 nM and the GI50 (MOLT-4 leukemia) was 322 nM. For the same compound, the TGI (MOLT-4 leukemia) was > 19700 nM, the GI50 (NCI-H460 lung) was 2110 nM and the TGI (NCI-H460 lung) was 6730 nM. It also gave a GI50 (M14 melanoma) of 499 nM, a TGI (M14 melanoma) of 1920 nM and a GI50 (SK-MEL-2 melanoma) of 1670 nM. For the same compound, the TGI (SK-MEL-2 melanoma) was 4060 nM, the GI50 (DU-145 prostate) was 2910 nM and the TGI (DU-145 prostate) was > 30400 nM. It also gave a GI50 (LOX IMVI melanoma) of 416 nM, a TGI (LOX IMVI melanoma) of 1650 nM and a GI50 (PC-3 prostate) of 317 nM. It also gave a TGI (PC-3 prostate) of 4000 nM, a GI50 (HCT-15 colon) of 385 nM and a TGI (HCT-15 colon) of 1490 nM. For the same compound, the GI50 (BT-549 breast) was 564 nM, the TGI (BT-549 breast) was 1920 nM and the GI50 (SF-268 CNS) was 2030 nM. It also gave a TGI (SF-268 CNS) of 6600 nM, a GI50 (SF-539 CNS) of 343 nM and a TGI (SF-539 CNS) of 1280 nM. The GI50 (SNB-19 CNS) was 2500 nM, the TGI (SNB-19 CNS) was 10500 nM and the GI50 (T-47D breast) was 352 nM. For the same compound, the TGI (T-47D breast) was 2080 nM, the GI50 (HL-60(TB) leukemia) was 339 nM and the TGI (HL-60(TB) leukemia) was 5780 nM. For the same compound, the GI50 (OVCAR-4 ovarian) was 1110 nM, the TGI (OVCAR-4 ovarian) was 2760 nM and the GI50 (RPMI-8226 leukemia) was 145 nM. For the same compound, the GI50 (786-0 renal) was 1820 nM, the TGI (786-0 renal) was 7270 nM and the GI50 (CCRF-CEM leukemia) was 270 nM. The TGI (CCRF-CEM leukemia) was > 100000 nM, the GI50 (MDA-MB-231 breast) was 1140 nM and the TGI (MDA-MB-231 breast) was 2600 nM. The GI50 (HCT-116 colon) was 299 nM, the TGI (HCT-116 colon) was 1580 nM and the GI50 (A498 renal) was 5740 nM. For the same compound, the TGI (A498 renal) was 36100 nM, the GI50 (TK-10 renal) was 1210 nM and the TGI (TK-10 renal) was 7600 nM.
